Experimental data as given in patent publication US20250034147A1, “MDM2 DEGRADERS AND USES THEREOF” (Kymera Therapeutics, Inc., priority 2021, published 2025).

These compounds were tested against T1, HiBiT-tagged MDM2 (Homo sapiens, UniProt Q00987) (assay: MDM2 HiBit HEK293T degradation). Conditions: HEK293T cells stably expressing C-terminally HiBiT-tagged MDM2; 4 h; read-out: MDM2 HiBit HEK293T degradation 4 h: Average external-Abs DC50.
T1 construct: expressed in transfected cells
Assay type: cell-based
Procedure: HEK293T cells were grown overnight to 70-80% confluency in a 6-well plate in complete media (DMEM 10% FBS) in a 37° C. incubator with 5% CO2. Cells were transfected with 1 micrograms of C- or N-terminally HiBiT-tagged MDM2 constructs using Fugene 6 transfection reagent (Promega) as per manufacturer protocol. After overnight incubation at 37° C., growth media within the wells was replaced with selection media (DMEM+10% FBS+1 microgram/ml final concentration of Puromycin). Puromycin (selection antibiotic) concentrations required for complete cell kill were determined previously. Cells were monitored for the next 48h-96h to select for positively transfected cells. Surviving colonies were pooled and expanded in selection media. Expanded pools of HEK293T cells stably expressing C- and N-terminally HiBiT-tagged MDM2, were characterized using a MDM2 tool degrader and HaloPROTAC3 as positive control. HEK293T cells expressing C-terminally HiBiT-tagged MDM2 were subsequently used for assessment of degradation potencies for MDM2 degraders.
The letter codes for MDM2 degradation potency (DC50) include: A (<10 nM), B […], C (>100-1000 nM), and D (>1000 nM).

T1 sequence (Q00987 whole entry): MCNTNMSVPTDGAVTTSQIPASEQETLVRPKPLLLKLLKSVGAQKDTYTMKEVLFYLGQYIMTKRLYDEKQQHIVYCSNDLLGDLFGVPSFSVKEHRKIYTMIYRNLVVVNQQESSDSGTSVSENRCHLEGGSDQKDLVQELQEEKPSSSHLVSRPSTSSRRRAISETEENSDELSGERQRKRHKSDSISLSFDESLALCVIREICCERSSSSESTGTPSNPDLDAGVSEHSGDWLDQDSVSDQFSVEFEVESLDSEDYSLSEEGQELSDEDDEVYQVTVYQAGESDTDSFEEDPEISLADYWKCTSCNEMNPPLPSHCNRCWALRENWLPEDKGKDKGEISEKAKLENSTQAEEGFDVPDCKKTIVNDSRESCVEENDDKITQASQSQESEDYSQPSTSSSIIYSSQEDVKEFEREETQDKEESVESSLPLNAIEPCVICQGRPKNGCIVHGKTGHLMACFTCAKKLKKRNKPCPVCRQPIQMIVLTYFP

DC50	Structure (SMILES)
< 10 nM	Cn1c(=O)n(C2CCC(=O)NC2=O)c2ccc(N3CCC(N4CCC(NC(=O)[C@@H]5NC6(CCCCC6)[C@@]6(C(=O)Nc7cc(Cl)ccc76)[C@H]5c5cccc(Cl)c5F)CC4)CC3)cc21 (stereo partly drawn) [I-139]
< 10 nM	C[C@H]1CN(C(=O)[C@H]2CC[C@H](NC(=O)[C@@H]3NC4(CCCCC4)[C@@]4(C(=O)Nc5cc(Cl)ccc54)[C@H]3c3cccc(Cl)c3F)CC2)CCN1CCc1ccc2c(c1)n(C)c(=O)n2C1CCC(=O)NC1=O (stereo partly drawn) [I-121]
< 10 nM	Cn1c(=O)n(C2CCC(=O)NC2=O)c2ccc(N3CCC(CC4(C(=O)O)CCN(C[C@H]5CC[C@H](NC(=O)[C@@H]6NC7(CCCCC7)[C@@]7(C(=O)Nc8cc(Cl)ccc87)[C@H]6c6cccc(Cl)c6F)CC5)CC4)CC3)cc21 (stereo partly drawn) [I-203]
< 10 nM	Cn1c(=O)n(C2CCC(=O)NC2=O)c2ccc(CCCCN3CCN(C[C@H]4CC[C@H](NC(=O)[C@@H]5NC6(CCCCC6)[C@@]6(C(=O)Nc7cc(Cl)ccc76)[C@H]5c5cccc(Cl)c5F)CC4)[C@@H](C(=O)O)C3)cc21 (stereo partly drawn) [I-214]
> 1000 nM	O=C1CCN(c2ccc(CCCCN3CCN(C[C@H]4CC[C@H](NC(=O)[C@@H]5NC6(CCCCC6)[C@@]6(C(=O)Nc7cc(Cl)ccc76)[C@H]5c5cccc(Cl)c5F)CC4)CC3)cc2)C(=O)N1 [I-208]
< 10 nM	Cn1c(=O)n(C2CCC(=O)NC2=O)c2ccc(C3CCN(C(=O)CN4CCC(NC(=O)[C@@H]5NC6(CCC(C)(C)CC6)[C@@]6(C(=O)Nc7cc(Cl)ccc76)[C@H]5c5ccnc(Cl)c5F)CC4)CC3)cc21 (stereo partly drawn) [I-160]
100 to 1000 nM	Cn1c(=O)n(C2CCC(=O)NC2=O)c2ccc(CN3CCN(C(=O)[C@H]4CC[C@H](NC(=O)[C@@H]5NC6(CCCCC6)[C@@]6(C(=O)Nc7cc(Cl)ccc76)[C@H]5c5cccc(Cl)c5F)CC4)C(C(=O)O)C3)cc21 (stereo partly drawn) [I-135]
10 to 100 nM	Cn1c(=O)n(C2CCC(=O)NC2=O)c2ccc(CC3(CC(=O)O)CCN(C[C@H]4CC[C@H](NC(=O)[C@@H]5NC6(CCCCC6)[C@@]6(C(=O)Nc7cc(Cl)ccc76)[C@H]5c5cccc(Cl)c5F)CC4)CC3)cc21 (stereo partly drawn) [I-210]
10 to 100 nM	Cn1c(=O)n(C2CCC(=O)NC2=O)c2ccc(O[C@@H]3C[C@@H](C(=O)O)N(C[C@H]4CC[C@H](NC(=O)[C@@H]5NC6(CCCCC6)[C@@]6(C(=O)Nc7cc(Cl)ccc76)[C@H]5c5cccc(Cl)c5F)CC4)C3)cc21 (stereo partly drawn) [I-200]
> 1000 nM	Cc1ncsc1-c1ccc(CNC(=O)[C@@H]2C[C@@H](O)CN2C(=O)[C@@H](NC(=O)CCCCC2CCN(C(=O)[C@H]3CC[C@H](NC(=O)[C@@H]4NC5(CCCCC5)[C@@]5(C(=O)Nc6cc(Cl)ccc65)[C@H]4c4cccc(Cl)c4F)CC3)CC2)C(C)(C)C)cc1 [I-148]
10 to 100 nM	Cn1c(=O)n(C2CCC(=O)NC2=O)c2ccc(CN3CCN(C[C@H]4CC[C@H](NC(=O)[C@@H]5NC6(CCCCC6)[C@@]6(C(=O)Nc7cc(Cl)ccc76)[C@H]5c5cccc(Cl)c5F)CC4)C(C(=O)O)C3)cc21 (stereo partly drawn) [I-196]
10 to 100 nM	O=C1CCN(c2cnc3cc(N4CCN(CCN5CCC(NC(=O)[C@@H]6NC7(CCCCC7)[C@@]7(C(=O)Nc8cc(Cl)ccc87)[C@H]6c6cccc(Cl)c6F)CC5)CC4)ccn23)C(=O)N1 [I-169]
> 1000 nM	Cc1ncsc1-c1ccc(CNC(=O)[C@@H]2C[C@@H](O)CN2C(=O)[C@@H](NC(=O)C2(F)CC2)C(C)(C)C)c(OCCCCCCCCNC(=O)[C@H]2CC[C@H](NC(=O)[C@@H]3NC4(CCCCC4)[C@@]4(C(=O)Nc5cc(Cl)ccc54)[C@H]3c3cccc(Cl)c3F)CC2)c1 [I-149]
< 10 nM	Cn1c(=O)n(C2CCC(=O)NC2=O)c2ccc(CCN3CCN(CCN4CCC(NC(=O)[C@@H]5NC6(CCCCC6)[C@@]6(C(=O)Nc7cc(Cl)ccc76)[C@H]5c5cccc(Cl)c5F)CC4)CC3)cc21 (stereo partly drawn) [I-151]
< 10 nM	Cn1c(=O)n(C2CCC(=O)NC2=O)c2ccc(CCCN3CCN(C[C@H]4CC[C@H](NC(=O)[C@@H]5NC6(CCCCC6)[C@@]6(C(=O)Nc7cc(Cl)ccc76)[C@H]5c5cccc(Cl)c5F)CC4)C(C(=O)O)C3)cc21 (stereo partly drawn) [I-202]
< 10 nM	Cn1c(=O)n(C2CCC(=O)NC2=O)c2ccc(CCCCN3CCN(C[C@H]4CC[C@H](NC(=O)[C@@H]5NC6(CCCCC6)[C@@]6(C(=O)Nc7cc(Cl)ccc76)[C@H]5c5cccc(Cl)c5F)CC4)[C@H](C(=O)O)C3)cc21 (stereo partly drawn) [I-213]
< 10 nM	Cn1c(=O)n(C2CCC(=O)NC2=O)c2ccc(CCCN3CCN(C(=O)[C@@H]4CC[C@@H](NC(=O)[C@@H]5NC6(CCCCC6)[C@@]6(C(=O)Nc7cc(Cl)ccc76)[C@H]5c5cccc(Cl)c5F)CO4)CC3)cc21 (stereo partly drawn) [I-133]
< 10 nM	Cn1c(=O)n(C2CCC(=O)NC2=O)c2ccc(CCN3CCN(C[C@H]4CC[C@H](NC(=O)[C@@H]5NC6(CCCCC6)[C@@]6(C(=O)Nc7cc(Cl)ccc76)[C@H]5c5cccc(Cl)c5F)CC4)C(C(=O)O)C3)cc21 (stereo partly drawn) [I-197]

DC50	Structure (SMILES)
< 10 nM	Cn1c(=O)n(C2CCC(=O)NC2=O)c2ccc(-c3ccc(CCN4CCC(NC(=O)[C@@H]5NC6(CCCCC6)[C@@]6(C(=O)Nc7cc(Cl)ccc76)[C@H]5c5cccc(Cl)c5F)CC4)cc3)cc21 (stereo partly drawn) [I-154]
> 1000 nM	Cc1ncsc1-c1ccc(CNC(=O)[C@@H]2C[C@@H](O)CN2C(=O)[C@@H](NC(=O)C2(F)CC2)C(C)(C)C)c(OCCCC2CCN(C[C@H]3CC[C@H](NC(=O)[C@@H]4NC5(CCCCC5)[C@@]5(C(=O)Nc6cc(Cl)ccc65)[C@H]4c4cccc(Cl)c4F)CC3)CC2)c1 [I-204]
< 10 nM	Cn1c(=O)n(C2CCC(=O)NC2=O)c2ccc(CCCCCN3CCN(C[C@H]4CC[C@H](NC(=O)[C@@H]5NC6(CCCCC6)[C@@]6(C(=O)Nc7cc(Cl)ccc76)[C@H]5c5cccc(Cl)c5F)CC4)[C@H](C(=O)O)C3)cc21 (stereo partly drawn) [I-211]
< 10 nM	Cn1c(=O)n(C2CCC(=O)NC2=O)c2ccc(CCCN3CCN(C[C@H]4CC[C@H](NC(=O)[C@@H]5NC6(CCCCC6)[C@@]6(C(=O)Nc7cc(Cl)ccc76)[C@H]5c5cccc(Cl)c5F)CC4)[C@@H](C(=O)O)C3)cc21 (stereo partly drawn) [I-216]
10 to 100 nM	Cn1c(=O)n(C2CCC(=O)NC2=O)c2ccc(C3CCN(C[C@H]4CC[C@H](NC(=O)[C@@H]5NC6(CCCCC6)[C@@]6(C(=O)Nc7cc(Cl)ccc76)[C@H]5c5cccc(Cl)c5F)CC4)C(C(=O)O)C3)cc21 (stereo partly drawn) [I-168]
< 10 nM	Cn1c(=O)n(C2CCC(=O)NC2=O)c2ccc(C3CCN([C@H]4CC[C@H](N5CCC(NC(=O)[C@@H]6NC7(CCCCC7)[C@@]7(C(=O)Nc8cc(Cl)ccc87)[C@H]6c6cccc(Cl)c6F)CC5)CC4)CC3)cc21 (stereo partly drawn) [I-155]
10 to 100 nM	Cn1c(=O)n(C2CCC(=O)NC2=O)c2ccc(CCCN3CCN(C[C@H]4CC[C@H](NC(=O)[C@@H]5NC6(CCCCC6)[C@@]6(C(=O)Nc7cc(Cl)ccc76)[C@H]5c5cccc(Cl)c5F)CC4)C(P(=O)(O)O)C3)cc21 (stereo partly drawn) [I-235]
> 1000 nM	O=C1CCN(c2ccc(CCCCN3CCN(C(=O)[C@H]4CC[C@H](NC(=O)[C@@H]5NC6(CCCCC6)[C@@]6(C(=O)Nc7cc(Cl)ccc76)[C@H]5c5cccc(Cl)c5F)CC4)CC3)cc2)C(=O)N1 [I-156]
< 10 nM	CN(C(=O)[C@H]1CC[C@H](NC(=O)[C@@H]2NC3(CCCCC3)[C@@]3(C(=O)Nc4cc(Cl)ccc43)[C@H]2c2cccc(Cl)c2F)CC1)C1CCN(Cc2ccc3c(c2)n(C)c(=O)n3C2CCC(=O)NC2=O)CC1 (stereo partly drawn) [I-127]
< 10 nM	Cn1c(=O)n(C2CCC(=O)NC2=O)c2ccc(CCCN3CCN(C[C@H]4CC[C@H](NC(=O)[C@@H]5NC6(CCC(C)(C)CC6)[C@@]6(C(=O)Nc7cc(Cl)ccc76)[C@H]5c5ccnc(Cl)c5F)CC4)[C@@H](C(=O)O)C3)cc21 (stereo partly drawn) [I-223]
< 10 nM	Cn1c(=O)n(C2CCC(=O)NC2=O)c2ccc(C3CCN(CCC(=O)N4CCC(NC(=O)[C@@H]5NC6(CCCCC6)[C@@]6(C(=O)Nc7cc(Cl)ccc76)[C@H]5c5cccc(Cl)c5F)CC4)CC3)cc21 (stereo partly drawn) [I-146]
10 to 100 nM	Cn1c(=O)n(C2CCC(=O)NC2=O)c2ccc(CCCO[C@@H]3C[C@H](C(=O)O)N(C[C@H]4CC[C@H](NC(=O)[C@@H]5NC6(CCCCC6)[C@@]6(C(=O)Nc7cc(Cl)ccc76)[C@H]5c5cccc(Cl)c5F)CC4)C3)cc21 (stereo partly drawn) [I-199]
10 to 100 nM	Cn1c(=O)n(C2CCC(=O)NC2=O)c2ccc(C3CCN(Cc4ccc(NC(=O)[C@@H]5NC6(CCCCC6)[C@@]6(C(=O)Nc7cc(Cl)ccc76)[C@H]5c5cccc(Cl)c5F)cc4C(=O)O)CC3)cc21 (stereo partly drawn) [I-171]
< 10 nM	C[C@@H]1CN(C(=O)[C@H]2CC[C@H](NC(=O)[C@@H]3NC4(CCCCC4)[C@@]4(C(=O)Nc5cc(Cl)ccc54)[C@H]3c3cccc(Cl)c3F)CC2)CCN1CCc1ccc2c(c1)n(C)c(=O)n2C1CCC(=O)NC1=O (stereo partly drawn) [I-122]
100 to 1000 nM	Cn1c(=O)n(C2CCC(=O)NC2=O)c2ccc(CCCO[C@@H]3C[C@@H](C(=O)O)N(C[C@H]4CC[C@H](NC(=O)[C@@H]5NC6(CCCCC6)[C@@]6(C(=O)Nc7cc(Cl)ccc76)[C@H]5c5cccc(Cl)c5F)CC4)C3)cc21 (stereo partly drawn) [I-198]
10 to 100 nM	Cn1c(=O)n(C2CCC(=O)NC2=O)c2ccc(O[C@@H]3C[C@@H](C(=O)O)N(C(=O)[C@H]4CC[C@H](NC(=O)[C@@H]5NC6(CCCCC6)[C@@]6(C(=O)Nc7cc(Cl)ccc76)[C@H]5c5cccc(Cl)c5F)CC4)C3)cc21 (stereo partly drawn) [I-143]
< 10 nM	Cn1c(=O)n(C2CCC(=O)NC2=O)c2cccc(C3CCN(CCN4CCC(NC(=O)[C@@H]5NC6(CCCCC6)[C@@]6(C(=O)Nc7cc(Cl)ccc76)[C@H]5c5cccc(Cl)c5F)CC4)CC3)c21 (stereo partly drawn) [I-152]
100 to 1000 nM	O=C1CCN(c2cnc3cc(C4CCN(C(=O)CN5CCC(NC(=O)[C@@H]6NC7(CCCCC7)[C@@]7(C(=O)Nc8cc(Cl)ccc87)[C@H]6c6cccc(Cl)c6F)CC5)CC4)ccn23)C(=O)N1 [I-164]
